ChEMBL document CHEMBL3044535, “Pharmacological profile of green tea and its polyphenols: a review” (Med Chem Res, 2012)
Values after ≈ are worked out from the molar mass of the structure shown.

Key:
Dermis [1] = experiment: Antioxidant activity in Homo sapiens (human) dermis assessed as inhibition of UV-induced hydrogen peroxide production administered before UV induction at 48 hr by DHR assay; type: functional
MDA-MB-468 [2] = experiment: Cytotoxicity against ER-negative Homo sapiens (human) MDA-MB-468 cells assessed as inhibition of cell viability at 5 to 80 ug/ml after 24 to 72 hr by MTT assay; type: functional
[3] = test system: Stenotrophomonas maltophilia; experiment: Antibacterial activity against Stenotrophomonas maltophilia clinical isolate by agar dilution method; type: functional
SK-OV-3 [4] = experiment: Downregulation of p21 expression in Homo sapiens (human) SKOV3 cells at 25 uM after 48 hr by Western blot analysis relative to control; type: functional
[5] = test system: Stenotrophomonas maltophilia; experiment: Bactericidal activity against Stenotrophomonas maltophilia clinical isolate; type: functional
SK-OV-3 [6] = experiment: Downregulation of CDK4 expression in Homo sapiens (human) SKOV3 cells at 25 uM after 48 hr by Western blot analysis relative to control; type: functional
Skin epidermis [7] = experiment: Antioxidant activity in Homo sapiens (human) epidermis cytosolic form assessed as inhibition of UV-induced nitric oxide production administered before UV induction at 48 hr by Griess assay; type: functional
MDA-MB-468 [8] = experiment: Cytotoxicity against ER-negative Homo sapiens (human) MDA-MB-468 cells assessed as growth inhibition at 5 to 80 ug/ml after 24 to 72 hr by MTT assay; type: functional
SK-OV-3 [9] = experiment: Downregulation of cyclin D1 expression in Homo sapiens (human) SKOV3 cells at 25 uM after 48 hr by Western blot analysis relative to control; type: functional
SK-OV-3 [10] = experiment: Downregulation of bax expression in Homo sapiens (human) SKOV3 cells at 25 uM after 48 hr by Western blot analysis relative to control; type: functional
SH-SY5Y = experiment: Neuroprotective activity in Homo sapiens (human) SH-SY5Y cells assessed as increase in non amyloidogenic soluble form of amyloid precursor protein secretion at 0.1 to 10 uM after 2 hr by immunoblot analysis relative to control; type: functional
Dermis [11] = experiment: Antioxidant activity in Homo sapiens (human) dermis cytosolic form assessed as inhibition of UV-induced nitric oxide production administered before UV induction at 48 hr by Griess assay; type: functional
SK-OV-3 [12] = experiment: Downregulation of Bcl-XL expression in Homo sapiens (human) SKOV3 cells at 25 uM after 48 hr by Western blot analysis relative to control; type: functional
[13] = test system: Stenotrophomonas maltophilia; experiment: Antibacterial activity against Stenotrophomonas maltophilia clinical isolate by broth macrodilution method; type: functional
Skin epidermis [14] = experiment: Antioxidant activity in Homo sapiens (human) epidermis assessed as inhibition of UV-induced hydrogen peroxide production administered before UV induction at 48 hr by DHR assay; type: functional
PC-12 = experiment: Neuroprotective activity in rat PC12 cells assessed as increase in non amyloidogenic soluble form of amyloid precursor protein secretion at 0.1 to 10 uM after 2 hr by immunoblot analysis relative to control; type: functional
SK-OV-3 [15] = experiment: Downregulation of retinoblastoma expression in Homo sapiens (human) SKOV3 cells at 25 uM after 48 hr by Western blot analysis relative to control; type: functional
Epidermal microsome = experiment: Antioxidant activity in Homo sapiens (human) epidermal microsomal fractions assessed as inhibition of UV-induced lipid peroxidation measured at 6 to 48 hr; type: functional; conditions: Skin epidermis, dose or concentration not given here
[16] = molecular target: Urease subunit alpha/Urease subunit beta (Helicobacter pylori (strain ATCC 700392 / 26695) (Campylobacterpylori), UniProt P69996); experiment: Inhibition of Helicobacter pylori urease; type: protein-complex assay
Urease subunit alpha/Urease subunit beta, sequence (P69996 whole entry): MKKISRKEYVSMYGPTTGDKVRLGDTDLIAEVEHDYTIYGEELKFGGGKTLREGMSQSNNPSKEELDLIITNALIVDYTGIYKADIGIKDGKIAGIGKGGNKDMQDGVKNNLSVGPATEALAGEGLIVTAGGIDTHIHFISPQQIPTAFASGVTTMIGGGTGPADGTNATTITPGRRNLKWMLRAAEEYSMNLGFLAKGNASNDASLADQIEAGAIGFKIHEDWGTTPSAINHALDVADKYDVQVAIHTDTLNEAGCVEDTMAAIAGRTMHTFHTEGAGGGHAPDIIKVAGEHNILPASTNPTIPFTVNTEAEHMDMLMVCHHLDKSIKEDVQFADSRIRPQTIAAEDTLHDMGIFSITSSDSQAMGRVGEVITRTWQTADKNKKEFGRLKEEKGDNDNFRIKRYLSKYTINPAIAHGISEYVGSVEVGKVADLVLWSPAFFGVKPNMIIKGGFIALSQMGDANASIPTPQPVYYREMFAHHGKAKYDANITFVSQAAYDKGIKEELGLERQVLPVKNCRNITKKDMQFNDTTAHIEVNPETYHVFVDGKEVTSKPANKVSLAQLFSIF
Urease subunit alpha/Urease subunit beta, sequence (P14916 whole entry, further chain): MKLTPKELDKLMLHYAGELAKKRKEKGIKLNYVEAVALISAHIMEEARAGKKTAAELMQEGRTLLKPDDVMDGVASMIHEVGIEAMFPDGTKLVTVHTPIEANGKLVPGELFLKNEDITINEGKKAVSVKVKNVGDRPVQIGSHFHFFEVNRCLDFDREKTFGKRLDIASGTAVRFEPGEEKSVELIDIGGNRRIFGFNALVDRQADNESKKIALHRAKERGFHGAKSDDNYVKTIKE

O=C(O[C@@H]1Cc2c(O)cc(O)cc2O[C@@H]1c1cc(O)c(O)c(O)c1)c1cc(O)c(O)c(O)c1 [EPIGALOCATECHIN GALLATE] was tested, and the “inhibition (INH)” value (Dermis [1]) was 30%, the “inhibition (INH)” value (MDA-MB-468 [2]) was 3% and the MIC50 [3] was 256 µg/mL (≈ 558 µM). The MIC90 [3] was 256 µg/mL (≈ 558 µM), the “fold change (FC)” value (SK-OV-3 [4]) was greater than 2 and the MIC50 [5] was 512 µg/mL (≈ 1120 µM). The MIC90 [5] was 512 µg/mL (≈ 1120 µM), the “fold change (FC)” value (SK-OV-3 [6]) was greater than 2 and the “inhibition (INH)” value (Skin epidermis [7]) was 30%. The “growth inhibition (GI)” value (MDA-MB-468 [8]) was 15%, the “fold change (FC)” value (SK-OV-3 [9]) was greater than 2 and the “fold change (FC)” value (SK-OV-3 [10]) was greater than 2. For the same molecule, the “fold change (FC)” value (SH-SY5Y) was 6, the “inhibition (INH)” value (Dermis [11]) was 30% and the “fold change (FC)” value (SK-OV-3 [12]) was greater than 2. For the same molecule, the MIC50 [13] was 512 µg/mL (≈ 1120 µM), the MIC90 [13] was 512 µg/mL (≈ 1120 µM) and the “inhibition (INH)” value (Skin epidermis [14]) was 30%. The “fold change (FC)” value (PC-12) was 6, the “fold change (FC)” value (SK-OV-3 [15]) was greater than 2 and the inhibition (Epidermal microsome) was 41%.
For Oc1cc(O)c2c(c1)O[C@H](c1ccc(O)c(O)c1)[C@@H](O)C2 [CATECHIN], the IC50 [16] was 44.8 µM.
